One molecule from ChEMBL document CHEMBL5579815, “Novel angiogenesis inhibitors with superoxide anion radical amplification effect: Surmounting the Achilles' heels of angiogenesis inhibitors and photosensitizers” (Eur J Med Chem, 2024) can be followed below.

Series [1] deals with SK-MEL-28. Briefly: Induction of apoptosis in human SK-MEL-28 cells assessed as viable cells at 1 uM preincubated for 24 hrs under normoxic condition followed by media removal and irradiated with 650 nm 10 mW/cm2 light for 15 mins under normoxic condition by Annexin V-FITC/propidium iodide staining based flow cytometry (reference value: 93.62%). Conditions: SK-MEL-28, light or radiation study, read-out: Activity. It counts as functional.

For series [2], the system named is SK-MEL-28. Briefly: Induction of apoptosis in human SK-MEL-28 cells assessed as late apoptotic cells at 2 uM preincubated for 24 hrs under normoxic condition followed by media removal and irradiated with 650 nm 10 mW/cm2 light for 15 mins under normoxic condition by Annexin V-FITC/propidium iodide staining based flow cytometry (reference value: 1.95%). The series is classed as functional.

For series [3], the system named is SK-MEL-28. Briefly: Induction of ROS generation in human SK-MEL-28 cells at 1 uM incubated for 24 hrs under hypoxic condition prior to DHE addition for 30 mins followed by media removal and irradiated with 650 nm 10 mW/cm2 light for 15 mins under hypoxic condition by DAPI staining based fluorescence microscopy. The series is classed as functional, cell-based.
The test system of series [4] is SK-MEL-28. Briefly: Induction of apoptosis in human SK-MEL-28 cells assessed as necrotic cells at 2 uM preincubated for 24 hrs under hypoxic condition followed by media removal and irradiated with 650 nm 10 mW/cm2 light for 15 mins under hypoxic condition by Annexin V-FITC/propidium iodide staining based flow cytometry (reference value: 2.63%). It counts as functional.

Series [5] can be described thus: Dark toxicity in human SK-MEL-28 cells assessed as reduction in cell viability by MTT assay. The series is classed as cell-based.
Series [6] can be described thus: Drug uptake in human EA.hy 926 cells at 1 uM measured after 24 hrs by flow cytometry. It counts as ADME, cell-based. Conditions: ea.hy 926, 24 h.
Series [7] relates to SK-MEL-28. Briefly: Induction of apoptosis in human SK-MEL-28 cells assessed as early apoptotic cells at 2 uM preincubated for 24 hrs under hypoxic condition followed by media removal and irradiated with 650 nm 10 mW/cm2 light for 15 mins under hypoxic condition by Annexin V-FITC/propidium iodide staining based flow cytometry (reference value: 1.8%). It counts as functional.

For series [8], the system named is SK-MEL-28. Briefly: Induction of apoptosis in human SK-MEL-28 cells assessed as late apoptotic cells at 2 uM preincubated for 24 hrs under hypoxic condition followed by media removal and irradiated with 650 nm 10 mW/cm2 light for 15 mins under hypoxic condition by Annexin V-FITC/propidium iodide staining based flow cytometry (reference value: 1.95%). The series is classed as functional.

The test system of series [9] is SK-MEL-28. Briefly: Induction of apoptosis in human SK-MEL-28 cells assessed as early apoptotic cells at 1 uM preincubated for 24 hrs under normoxic condition followed by media removal and irradiated with 650 nm 10 mW/cm2 light for 15 mins under normoxic condition by Annexin V-FITC/propidium iodide staining based flow cytometry (reference value: 1.8%). It counts as functional.

Series [10] has as its system SK-MEL-28. Briefly: Induction of apoptosis in human SK-MEL-28 cells assessed as necrotic cells at 0.5 uM preincubated for 24 hrs under hypoxic condition followed by media removal and irradiated with 650 nm 10 mW/cm2 light for 15 mins under hypoxic condition by Annexin V-FITC/propidium iodide staining based flow cytometry (reference value: 2.63%). The series is classed as functional.

Series [11] concerns EA.hy 926. Briefly: Antiangiogenic activity in human EA.hy 926 cells assessed as reduction in cell viability at 0.008 to 1 uM preincubated for 24 hrs under normoxic condition followed by media removal and irradiated with 650 nm 10 mW/cm2 light for 15 mins under normoxic condition prior to media replacement and measured after 24 hrs by MTT assay. It counts as functional, cell-based. Conditions: dose 0.008-1 µM.

The test system of series [12] is SK-MEL-28. In words: Induction of ROS generation in human SK-MEL-28 cells at 1 uM incubated for 24 hrs under normoxic condition prior to DHE addition for 30 mins followed by media removal and irradiated with 650 nm 10 mW/cm2 light for 15 mins under normoxic condition by DAPI staining based fluorescence microscopy. It counts as functional, cell-based.
Series [13] in a line: Drug uptake in HEK293 cells at 1 uM measured after 24 hrs by flow cytometry. It counts as ADME, cell-based. Conditions: human, hek293, 24 h.
The test system of series [14] is SK-MEL-28. Briefly: Induction of apoptosis in human SK-MEL-28 cells assessed as necrotic cells at 1 uM preincubated for 24 hrs under hypoxic condition followed by media removal and irradiated with 650 nm 10 mW/cm2 light for 15 mins under hypoxic condition by Annexin V-FITC/propidium iodide staining based flow cytometry (reference value: 2.63%). The series is classed as functional.

Series [15] relates to SK-MEL-28. Briefly: Induction of apoptosis in human SK-MEL-28 cells assessed as early apoptotic cells at 0.5 uM preincubated for 24 hrs under hypoxic condition followed by media removal and irradiated with 650 nm 10 mW/cm2 light for 15 mins under hypoxic condition by Annexin V-FITC/propidium iodide staining based flow cytometry (reference value: 1.8%). The series is classed as functional.

Series [16] concerns SK-MEL-28. In words: Induction of apoptosis in human SK-MEL-28 cells assessed as late apoptotic cells at 1 uM preincubated for 24 hrs under hypoxic condition followed by media removal and irradiated with 650 nm 10 mW/cm2 light for 15 mins under hypoxic condition by Annexin V-FITC/propidium iodide staining based flow cytometry (reference value: 1.95%). The series is classed as functional.

The subject of series [17] is SK-MEL-28. In words: Induction of apoptosis in human SK-MEL-28 cells assessed as viable cells at 1 uM preincubated for 24 hrs under hypoxic condition followed by media removal and irradiated with 650 nm 10 mW/cm2 light for 15 mins under hypoxic condition by Annexin V-FITC/propidium iodide staining based flow cytometry (reference value: 93.62%). The series is classed as functional. Conditions: SK-MEL-28, light or radiation study, read-out: Activity.

The subject of series [18] is SK-MEL-28. In words: Induction of apoptosis in human SK-MEL-28 cells assessed as necrotic cells at 1 uM preincubated for 24 hrs under normoxic condition followed by media removal and irradiated with 650 nm 10 mW/cm2 light for 15 mins under normoxic condition by Annexin V-FITC/propidium iodide staining based flow cytometry (reference value: 2.63%). It counts as functional.

For series [19], the system named is U-87 MG. Briefly: Cytotoxicity against human U87 cells assessed as reduction in cell viability at 0.008 to 1 uM preincubated for 24 hrs under hypoxic condition followed by media removal and irradiated with 650 nm 10 mW/cm2 light for 15 mins under hypoxic condition prior to media replacement and measured after 24 hrs by MTT assay. The series is classed as functional, cell-based. Conditions: U-87MG ATCC, dose 0.008-1 µM.

Series [20] deals with HEK293. Briefly: Dark toxicity in HEK293 cells assessed as reduction in cell viability at 0.078 to 10 uM by MTT assay. It counts as cell-based. Conditions: human, hek293, 10 µM; dose 0.078-10 µM.
The subject of series [21] is SK-MEL-28. In words: Induction of apoptosis in human SK-MEL-28 cells assessed as viable cells at 2 uM preincubated for 24 hrs under hypoxic condition followed by media removal and irradiated with 650 nm 10 mW/cm2 light for 15 mins under hypoxic condition by Annexin V-FITC/propidium iodide staining based flow cytometry (reference value: 93.62%). The series is classed as functional. Conditions: SK-MEL-28, light or radiation study, read-out: Activity.

Active and inactive are the calls of the source. The calls are words filed in the database; no cut-off is given here. Bounds are passed on as bounds.

For the molecule `CCN(CC)c1ccc2nc3c4ccccc4/c(=N\CCCCCCNC(=O)c4cc(Oc5ccc(NC(=O)Nc6ccc(Cl)c(C(F)(F)F)c6)cc5)ccn4)cc-3sc2c1`, the figures for the viability at 1 µM in series [1] and in series [17] were 64.6% and 69%, respectively. Moreover, the Activity in series [2] amounted to 26.72%; in series [4] it was 18.77%; in series [7], 10.55%; in [8], 17.67%; in series [9] it was 3.59%; in series [10], 11.5%. For the same molecule, the Activity in [14] was 19.45%; in series [15], 3.13%; in series [16] it was 7.57%; in series [18], 23.01%; in series [20], “Non-Toxic”. Further, the outcome in series [3], in [11], in series [12] and in [19] was Active. For the same molecule, in series [5], the IC50 was more than 10 µM. For the same molecule, the Drug uptake result in series [6] and in series [13] was “Active” throughout. Also, the viability at 2 µM in series [21] is 53%.
